US5643954A, “Method of preventing and alleviating stress in a healthy mammal in need thereof” (priority 1993, dated 1997)

Tests used:
[1] = testings with Corazolin (Corazol), mice; type: in vivo; conditions: mouse, in vivo; 150 mg/kg of weight; read-out: death of the animals
[2] = system: Corazol convulsions; assay: testings with Corazolin (Corazol), mice; type: in vivo; conditions: 150 mg/kg of weight
[3] = system: hexenal sleep; assay: comparative interaction test with hexenal, rats; type: in vivo; conditions: for Hexanal sleep duration: M ± m
[4] = orientation motive activity of mice, automated registration of movements; type: in vivo, mice (male); conditions: for Number of movements in 10 min in register: M ± m
Experimental: Experiments were conducted in vivo on male mice weighing 18-22 g and male rats weighing 200-250 g, as well as in vitro on the isolated organs: a guinea pig's ileum and a rat's seminal effervesces.

[5] = type: in vivo; conditions: in words
[6] = system: bioelectric activity of rats' brain; assay: spontaneous bioelectrical activity of rats' brain (EEG, implanted electrodes); type: in vivo; conditions: 90 mg/kg
[7] = system: Corazol twitches; assay: comparative interaction test with Corazol, rats; type: in vivo; conditions: M ± m

Compound | mortality [1] [%] | time to death of the animals [2] [min] | Hexanal sleep duration ([3]; 100 mg/kg) [min] | Hexanal sleep duration ([3]; 200 mg/kg) [min] | hexenal sleep ([3]; in words) | Number of movements in 10 min in register ([4]; 100 mg/kg intraperitoneally) | Number of movements in 10 min in register ([4]; 200 mg/kg intraperitoneally) | Number of movements in 10 min in register ([4]; 500 mg/kg intraperitoneally) | motor activity ([4]; in words) | tonico-extensor component of Corazol and strychnine twitches and electrical shock [5] | Maximal effect appearance time from the start of experiment [6] [min] | Nature of effect [6] | Nature of effect, effective for [6] | Index, fast activ. ([6]; M ± m) [%] | Index, slow activ. ([6]; M ± m) [%] | Corazol twitches, latent period ([7]; 100 mg/kg) [min] | Corazol twitches, latent period ([7]; 200 mg/kg) [min]
C1CCc2nnnn2CC1 [Corazolin, reference compound] | 100 | 2 to 4 | – | – | – | – | – | – | – | – | – | – | – | – | – | – | –
NCC(CC(=O)O)c1ccccc1 (centres unmarked) [phenibut, reference compound] | – | – | 110.0 ± 8.3 | 130.0 ± 8.5 | prolong hexenal sleep | 434 ± 4.4 | 186 ± 8.7 | 19 ± 3.0 | sharply inhibit motor activity as a dose is increased | reduce the tonico-extensor component of Corazol and strychnine twitches and electrical shock | 40 | Permanent | over 3 hrs | 77 ± 0.9 | 87 ± 3.1 | 53.0 ± 5.4 | 50.0 ± 2.8
